In patent publication US9751888B2, “Heterocyclic compounds and uses thereof” (Infinity Pharmaceuticals, Inc., priority 2013, dated 2017):

How the values were obtained:
[1] = molecular target: human Class I PI3 kinase γ (Homo sapiens (Human), UniProt P48736); test: PI3-Kinase Promega ADP-Glo Max assay, γ isoform; type: biochemical; conditions: 40 nM kinase, 3 mM ATP, 500 uM diC8-PtdInsP; read-out: Promega γ PI3K IC50
Description: Promega ADP-Glo Max assay kit (Cat. No. V7002) was utilized to determine IC50 values for α, β, δ and γ isoforms of human Class I PI3 kinases (Millipore). Samples of kinase (20 nM α or δ, 40 nM β or γ isoform) were incubated with compound for 15 minutes at room temperature in reaction buffer (15 mM HEPES pH 7.4, 20 mM NaCl, 1 mM EGTA, 0.02% Tween 20, 10 mM MgCl2, 0.2 mg/mL bovine-γ-globulins) followed by addition of ATP/diC8-PtdInsP mixture to give final concentrations of 3 mM ATP and 500 uM diC8-PtdInsP. Reactions were incubated at room temperature for 2 hours followed by addition of 25 uL of stop solution. After a 40-minute incubation at room temperature, 50 uL of Promega detection mix was added followed by incubation for 1 hour at room temperature. Plates were then read on Envision plate reader in luminescence mode. Data was converted to % inhibition using the following equation below:
[formula] where S is the sample luminescence, Pos is a positive control without added PI3K, Neg is the negative control without added compound. Data was then plotted as % inhibition vs compound concentration.
Certain compounds provided herein were tested in PI3-Kinase Promega Assay using procedures as described above to determine IC50 values for α, β, δ and/or γ isoforms.

[2] = molecular target: human Class I PI3 kinase α (Homo sapiens (Human), UniProt P42336); test: PI3-Kinase Promega ADP-Glo Max assay, α isoform; type: biochemical; conditions: 20 nM kinase, 3 mM ATP, 500 uM diC8-PtdInsP; read-out: Promega α PI3K IC50
[3] = molecular target: human Class I PI3 kinase δ (Homo sapiens (Human), UniProt O00329); test: PI3-Kinase Promega ADP-Glo Max assay, δ isoform; type: biochemical; conditions: 20 nM kinase, 3 mM ATP, 500 uM diC8-PtdInsP; read-out: Promega δ PI3K IC50
[4] = molecular target: human Class I PI3 kinase β (Homo sapiens (Human), UniProt P42338); test: PI3-Kinase Promega ADP-Glo Max assay, β isoform; type: biochemical; conditions: 40 nM kinase, 3 mM ATP, 500 uM diC8-PtdInsP; read-out: Promega β PI3K IC50
p110 γ (RAW264.7 cells) = p110 γ (RAW264.7 cells) (Mus musculus (Mouse), UniProt Q9JHG7); test: PI3K-γ selective cellular assay: phospho-AKT in C5a stimulated RAW264.7 macrophages; type: cell-based; conditions: serum-starved RAW264.7 cells stimulated with C5a
Description: Certain compounds provided herein were tested in RAW 264.7 cell model using procedures as described above.

p110 δ (RAJI cells) = p110 δ (RAJI cells) (Homo sapiens (Human), UniProt O00329); test: PI3K-δ selective cellular assay: phospho-AKT in anti-human IgM stimulated RAJI cells; type: cell-based; conditions: serum-starved RAJI cells stimulated with anti-human IgM
Description: A compound's ability in selectively inhibiting PI3K-δ can be assessed using RAJI cells, i.e., B lymphocyte cells derived from lymphoma patients. Briefly, serum-starved RAJI cells are stimulated with anti-human IgM, thereby causing signaling through the B-cell receptors, as described in, for example, He et al., Leukemia Research (2009) 33: 798-802. B-cell receptor signaling is important for the activation, differentiation, and survival of B cells and certain B-cell derived cancers. Reduction of phospho-AKT is indicative of compounds that may inhibit B-cell proliferation and function in certain diseases. […] Certain compounds provided herein were tested in RAJI cell model using procedures as described above.

Sequence of human Class I PI3 kinase β (P42338 whole entry, looked up, canonical isoform): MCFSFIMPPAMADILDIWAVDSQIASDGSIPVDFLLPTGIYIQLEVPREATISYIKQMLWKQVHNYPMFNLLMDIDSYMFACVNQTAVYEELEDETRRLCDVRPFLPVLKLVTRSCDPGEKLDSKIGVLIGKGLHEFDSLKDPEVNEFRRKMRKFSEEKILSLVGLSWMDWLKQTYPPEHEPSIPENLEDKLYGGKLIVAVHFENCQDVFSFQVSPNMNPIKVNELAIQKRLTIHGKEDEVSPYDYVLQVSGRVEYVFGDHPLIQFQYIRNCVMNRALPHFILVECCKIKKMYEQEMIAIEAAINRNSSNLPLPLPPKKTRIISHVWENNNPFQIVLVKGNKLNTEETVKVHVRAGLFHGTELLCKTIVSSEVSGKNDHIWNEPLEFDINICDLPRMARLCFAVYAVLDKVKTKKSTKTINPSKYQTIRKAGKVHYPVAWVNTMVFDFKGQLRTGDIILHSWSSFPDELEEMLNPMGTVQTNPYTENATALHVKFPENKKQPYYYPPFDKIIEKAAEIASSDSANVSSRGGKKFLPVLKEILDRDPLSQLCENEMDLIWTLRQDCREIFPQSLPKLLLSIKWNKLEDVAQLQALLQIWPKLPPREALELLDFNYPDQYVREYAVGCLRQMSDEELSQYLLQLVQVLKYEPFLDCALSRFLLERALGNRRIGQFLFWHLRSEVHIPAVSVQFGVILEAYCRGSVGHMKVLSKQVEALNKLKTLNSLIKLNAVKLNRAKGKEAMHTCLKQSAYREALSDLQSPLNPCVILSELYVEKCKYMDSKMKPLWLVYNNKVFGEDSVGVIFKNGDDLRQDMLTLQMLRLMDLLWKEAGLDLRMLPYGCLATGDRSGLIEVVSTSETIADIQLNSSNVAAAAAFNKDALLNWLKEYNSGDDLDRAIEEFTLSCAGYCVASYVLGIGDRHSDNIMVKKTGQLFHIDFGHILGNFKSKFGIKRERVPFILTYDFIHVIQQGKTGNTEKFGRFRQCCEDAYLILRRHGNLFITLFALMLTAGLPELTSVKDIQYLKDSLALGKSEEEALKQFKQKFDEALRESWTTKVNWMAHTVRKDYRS
Sequence of human Class I PI3 kinase β (P27986 whole entry partner, looked up, canonical isoform): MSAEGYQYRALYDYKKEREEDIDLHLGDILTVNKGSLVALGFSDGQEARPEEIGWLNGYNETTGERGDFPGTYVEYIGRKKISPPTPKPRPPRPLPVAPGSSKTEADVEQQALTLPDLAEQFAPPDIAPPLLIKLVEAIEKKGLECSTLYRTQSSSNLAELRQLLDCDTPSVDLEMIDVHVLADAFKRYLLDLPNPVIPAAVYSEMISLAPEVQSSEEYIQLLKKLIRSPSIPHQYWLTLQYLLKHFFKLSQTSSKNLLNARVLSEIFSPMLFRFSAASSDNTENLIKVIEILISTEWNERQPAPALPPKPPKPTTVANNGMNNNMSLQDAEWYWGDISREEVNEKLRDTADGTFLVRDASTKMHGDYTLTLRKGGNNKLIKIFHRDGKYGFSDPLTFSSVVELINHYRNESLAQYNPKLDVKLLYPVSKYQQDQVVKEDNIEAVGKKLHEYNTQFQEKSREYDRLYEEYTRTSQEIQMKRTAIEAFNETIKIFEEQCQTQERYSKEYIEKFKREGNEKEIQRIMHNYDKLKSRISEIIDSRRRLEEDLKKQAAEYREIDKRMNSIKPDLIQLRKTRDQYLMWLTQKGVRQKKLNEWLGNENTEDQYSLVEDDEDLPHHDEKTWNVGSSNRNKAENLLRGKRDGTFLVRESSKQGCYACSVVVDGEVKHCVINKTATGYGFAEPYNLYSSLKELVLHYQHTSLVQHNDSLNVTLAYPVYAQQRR
Sequence of human Class I PI3 kinase α (P42336 whole entry, canonical isoform): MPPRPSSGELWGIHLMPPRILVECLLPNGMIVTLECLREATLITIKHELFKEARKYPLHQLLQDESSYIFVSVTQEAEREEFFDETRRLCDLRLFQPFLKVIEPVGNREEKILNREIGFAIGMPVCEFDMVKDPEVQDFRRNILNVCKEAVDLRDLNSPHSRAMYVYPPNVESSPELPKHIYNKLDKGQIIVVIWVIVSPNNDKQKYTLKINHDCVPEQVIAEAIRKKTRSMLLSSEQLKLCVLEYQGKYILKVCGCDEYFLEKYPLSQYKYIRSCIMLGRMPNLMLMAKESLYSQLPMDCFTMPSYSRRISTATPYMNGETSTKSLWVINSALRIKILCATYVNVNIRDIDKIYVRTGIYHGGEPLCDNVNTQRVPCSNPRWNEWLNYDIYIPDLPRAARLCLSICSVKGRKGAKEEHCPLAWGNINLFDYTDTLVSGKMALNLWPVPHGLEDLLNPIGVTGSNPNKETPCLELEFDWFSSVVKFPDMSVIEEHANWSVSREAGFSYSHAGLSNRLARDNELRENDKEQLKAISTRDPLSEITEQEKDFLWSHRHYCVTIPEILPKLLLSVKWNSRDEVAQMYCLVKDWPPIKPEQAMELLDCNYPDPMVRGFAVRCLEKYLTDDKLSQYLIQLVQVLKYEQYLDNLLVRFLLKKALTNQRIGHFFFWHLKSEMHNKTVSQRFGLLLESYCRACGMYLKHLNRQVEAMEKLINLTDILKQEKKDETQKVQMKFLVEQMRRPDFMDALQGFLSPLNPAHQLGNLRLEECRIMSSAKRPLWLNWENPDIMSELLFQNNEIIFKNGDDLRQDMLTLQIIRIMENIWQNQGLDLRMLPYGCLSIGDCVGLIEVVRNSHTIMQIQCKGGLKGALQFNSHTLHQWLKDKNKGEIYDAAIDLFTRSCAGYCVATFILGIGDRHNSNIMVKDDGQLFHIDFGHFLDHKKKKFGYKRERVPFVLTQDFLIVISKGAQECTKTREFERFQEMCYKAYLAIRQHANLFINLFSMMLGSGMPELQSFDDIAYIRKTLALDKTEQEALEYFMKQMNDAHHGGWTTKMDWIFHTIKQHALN
Sequence of human Class I PI3 kinase α (P27986 whole entry partner, canonical isoform): as the sequence (P27986 whole entry partner, looked up, canonical isoform) above
Sequence of human Class I PI3 kinase γ (P48736 whole entry, canonical isoform): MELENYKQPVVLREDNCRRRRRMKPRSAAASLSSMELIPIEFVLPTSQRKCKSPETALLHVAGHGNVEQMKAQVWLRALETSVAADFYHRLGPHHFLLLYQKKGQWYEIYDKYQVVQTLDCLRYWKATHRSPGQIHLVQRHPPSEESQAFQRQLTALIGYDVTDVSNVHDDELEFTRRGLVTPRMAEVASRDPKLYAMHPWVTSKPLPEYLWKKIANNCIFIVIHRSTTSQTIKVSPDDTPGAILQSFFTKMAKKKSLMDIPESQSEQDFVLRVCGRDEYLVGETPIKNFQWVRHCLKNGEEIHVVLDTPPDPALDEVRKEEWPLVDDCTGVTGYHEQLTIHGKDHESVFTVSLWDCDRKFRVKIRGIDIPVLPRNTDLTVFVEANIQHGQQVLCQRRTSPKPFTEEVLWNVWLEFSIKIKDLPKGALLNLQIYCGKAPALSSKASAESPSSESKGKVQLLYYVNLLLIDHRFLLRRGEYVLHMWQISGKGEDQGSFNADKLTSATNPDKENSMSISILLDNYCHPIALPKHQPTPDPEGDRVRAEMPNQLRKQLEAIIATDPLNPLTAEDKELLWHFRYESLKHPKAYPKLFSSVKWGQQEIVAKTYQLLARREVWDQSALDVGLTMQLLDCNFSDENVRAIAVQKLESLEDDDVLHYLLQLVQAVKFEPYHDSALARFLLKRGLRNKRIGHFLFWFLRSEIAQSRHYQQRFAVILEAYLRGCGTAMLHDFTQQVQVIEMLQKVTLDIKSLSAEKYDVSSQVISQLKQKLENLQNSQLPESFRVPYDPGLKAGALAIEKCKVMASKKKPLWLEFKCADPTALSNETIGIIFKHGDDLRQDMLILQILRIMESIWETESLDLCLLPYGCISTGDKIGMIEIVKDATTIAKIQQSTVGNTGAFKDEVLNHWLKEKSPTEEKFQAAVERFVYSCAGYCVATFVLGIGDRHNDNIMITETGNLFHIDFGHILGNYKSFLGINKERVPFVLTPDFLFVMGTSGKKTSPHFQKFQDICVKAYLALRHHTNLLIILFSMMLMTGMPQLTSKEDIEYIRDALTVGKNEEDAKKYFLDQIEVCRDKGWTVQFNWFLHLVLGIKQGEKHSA
Sequence of p110 γ (RAW264.7 cells) (Q9JHG7 whole entry): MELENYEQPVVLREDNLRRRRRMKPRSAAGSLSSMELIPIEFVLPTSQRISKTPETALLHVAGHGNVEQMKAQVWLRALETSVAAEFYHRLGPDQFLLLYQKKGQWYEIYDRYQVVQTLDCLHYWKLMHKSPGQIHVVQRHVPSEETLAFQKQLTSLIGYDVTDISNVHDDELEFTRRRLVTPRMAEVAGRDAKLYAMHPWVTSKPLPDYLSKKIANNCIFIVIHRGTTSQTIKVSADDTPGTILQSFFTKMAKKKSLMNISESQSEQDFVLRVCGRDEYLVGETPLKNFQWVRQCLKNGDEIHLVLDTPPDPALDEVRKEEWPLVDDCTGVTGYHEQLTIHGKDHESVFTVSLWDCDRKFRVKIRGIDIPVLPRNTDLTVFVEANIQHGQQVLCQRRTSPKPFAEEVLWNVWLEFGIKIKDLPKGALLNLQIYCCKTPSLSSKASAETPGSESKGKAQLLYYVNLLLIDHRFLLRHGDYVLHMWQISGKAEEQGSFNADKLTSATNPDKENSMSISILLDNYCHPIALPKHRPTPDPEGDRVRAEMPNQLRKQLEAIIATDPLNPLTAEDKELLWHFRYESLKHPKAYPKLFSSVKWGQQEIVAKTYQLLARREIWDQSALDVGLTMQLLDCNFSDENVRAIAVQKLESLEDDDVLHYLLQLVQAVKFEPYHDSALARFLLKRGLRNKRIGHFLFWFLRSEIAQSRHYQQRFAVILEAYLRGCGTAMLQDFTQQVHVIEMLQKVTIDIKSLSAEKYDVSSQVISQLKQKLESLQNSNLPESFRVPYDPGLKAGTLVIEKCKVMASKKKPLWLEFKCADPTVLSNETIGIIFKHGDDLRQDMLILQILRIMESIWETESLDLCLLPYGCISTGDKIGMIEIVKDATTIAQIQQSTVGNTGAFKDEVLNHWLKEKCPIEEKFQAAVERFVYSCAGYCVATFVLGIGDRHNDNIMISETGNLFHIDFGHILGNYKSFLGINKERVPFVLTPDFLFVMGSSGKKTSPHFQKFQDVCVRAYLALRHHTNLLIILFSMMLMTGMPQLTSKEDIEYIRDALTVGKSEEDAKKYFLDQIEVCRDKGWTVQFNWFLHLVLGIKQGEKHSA

Row | SMILES | IC50 [1] | IC50 [2] | IC50 [3] | IC50 [4] | IC50 (p110 γ (RAW264.7 cells)) | IC50 (p110 δ (RAJI cells))
1 | C[C@H](NC(=O)c1c(N)nn2cccnc12)c1cc2cccc(Cl)c2c(=O)n1CCNS(C)(=O)=O [Compound 13] | 10 to 100 nM | 1000 to 10000 nM | 1000 to 10000 nM | 500 to 1000 nM | 100 to 500 nM | 10 to 100 nM
2 | C[C@H](NC(=O)c1c(N)nn2cccnc12)c1cc2cccc(Cl)c2c(=O)n1CCc1nnn[nH]1 [Compound 16] | 10 to 100 nM | 1000 to 10000 nM | 1000 to 10000 nM | 1000 to 10000 nM | 500 to 1000 nM | 1000 to 10000 nM
3 | C[C@H](NC(=O)c1c(N)nn2cccnc12)c1cc2cccc(Cl)c2c(=O)n1Cc1nnn[nH]1 [Compound 17] | 100 to 500 nM | 1000 to 10000 nM | 1000 to 10000 nM | 1000 to 10000 nM | 500 to 1000 nM | 1000 to 10000 nM
4 | Cc1noc(CCn2c([C@H](C)NC(=O)c3c(N)nn4cccnc34)cc3cccc(Cl)c3c2=O)n1 [Compound 18] | 1000 to 10000 nM | 1000 to 10000 nM | 1000 to 10000 nM | 1000 to 10000 nM | 100 to 500 nM | 10 to 100 nM
5 | C[C@H](NC(=O)c1c(N)nn2cccnc12)c1cc2cccc(Cl)c2c(=O)n1CCS(N)(=O)=O [Compound 19] | 10 to 100 nM | 1000 to 10000 nM | 1000 to 10000 nM | 100 to 500 nM | 10 to 100 nM | 10 to 100 nM
6 | C[C@H](NC(=O)c1c(N)nn2cccnc12)c1cc2cccc(Cl)c2c(=O)n1CCc1ncn[nH]1 [Compound 20] | 500 to 1000 nM | 1000 to 10000 nM | 1000 to 10000 nM | 500 to 1000 nM | 1000 to 10000 nM | 10 to 100 nM
7 | C[C@H](NC(=O)c1nccnc1N)c1nc2cccc(Cl)c2c(=O)n1-c1ccc(F)cc1 [Compound 46] | 100 to 500 nM | 1000 to 10000 nM | 1000 to 10000 nM | 1000 to 10000 nM | 10 to 100 nM | 1 to 10 nM

The remaining lines, values ahead:

Row | IC50 [1] | IC50 [2] | IC50 [3] | IC50 [4] | IC50 (p110 γ (RAW264.7 cells)) | IC50 (p110 δ (RAJI cells)) | SMILES
8 | 1000 to 10000 nM | 1000 to 10000 nM | 1000 to 10000 nM | 1000 to 10000 nM |  |  | C[C@H](NC(=O)c1nc(C2CC2)cnc1N)c1cc2cccc(Cl)c2c(=O)n1-c1ccccc1 [Compound 3]
9 | 100 to 500 nM | 1000 to 10000 nM | 1000 to 10000 nM | 1000 to 10000 nM | 10 to 100 nM | 100 to 500 nM | CCn1cc(-c2cccc3cc([C@H](C)NC(=O)c4c(N)nn5cccnc45)n(-c4ccccc4)c(=O)c23)cn1 [Compound 5]
10 | 1000 to 10000 nM | 1000 to 10000 nM | 1000 to 10000 nM | 1000 to 10000 nM | 100 to 500 nM | 10 to 100 nM | C[C@H](NC(=O)c1c(N)nn2cccnc12)c1cc2cccc(Cl)c2c(=O)n1CCc1ccccc1 [Compound 15]
11 | 1000 to 10000 nM | 1000 to 10000 nM | 1000 to 10000 nM | 100 to 500 nM |  |  | C[C@H](NC(=O)c1c(N)nn2cccnc12)c1cc2cccc(Cl)c2c(=O)n1CCc1c[nH]cn1 [Compound 21]
12 | 10 to 100 nM | 1000 to 10000 nM | 100 to 500 nM | 1000 to 10000 nM | 1 to 10 nM | 1 to 10 nM | C[C@H](NC(=O)c1c(N)ncn2ccnc12)c1cc2cccc(Cl)c2c(=O)n1-c1ccccc1 [Compound 43]
13 | 10 to 100 nM | 1000 to 10000 nM | 1000 to 10000 nM | 1000 to 10000 nM | 1 to 10 nM | 10 to 100 nM | C[C@H](NC(=O)c1c(N)nn2cccnc12)c1nc2cccc(Cl)c2c(=O)n1-c1ccc(F)cc1 [Compound 45]
14 | 100 to 500 nM | 1000 to 10000 nM | 1000 to 10000 nM | 1000 to 10000 nM | 10 to 100 nM | 100 to 500 nM | C[C@H](NC(=O)c1c(N)nn2cccnc12)c1cc2cccc(-c3cnn(CC#N)c3)c2c(=O)n1-c1ccccc1 [Compound 48]
15 | 100 to 500 nM | 1000 to 10000 nM | 1000 to 10000 nM | 1000 to 10000 nM | 10 to 100 nM | 100 to 500 nM | C[C@H](NC(=O)c1c(N)nn2cccnc12)c1cc2cccc(-c3cnn(CC(F)(F)F)c3)c2c(=O)n1-c1ccccc1 [Compound 50]
